# Assays:
# Type in all cases: cell-based, human
# Bcl-XL mRNA = experiment: RT-PCR of Bcl-XL mRNA in SKOV3 cells after siRNA transfection; conditions: 72 h after transfection, FIG. 1A
# Procedure: (§1) The siRNA duplexes were transfected according to the recommended procedure by using the Oligofectamine Reagent and Opti-MEM medium (INVITROGEN LIFE TECHNOLOGIES). 30-40% confluent cells were transfected in 25 cm^2 flasks with different concentrations of siXL1, siRNA Mcl-1 or siRNA control and incubated at 37° C., 5% CO2 for 4 hours. Next, 20% fetal bovin serum was added to reach a final concentration of 10% foetal bovin serum in the 25 cm^2 flask.
# One μg of total RNA, extracted by RNAeasy kit (QIAGEN), was reverse-transcripted with 200 units Omniscript reverse transcriptase (QIAGEN) in first strand reaction conditions recommended by the manufacturer. The targeted cDNA were amplified using the following pair of primers, Bcl-XL/S forward 5′-[…]-3′ (SEQ ID NO: 11) and Bcl-XL/S reverse 5′-gtagagtggatggtcagtg-3′ (SEQ ID NO:12; Bargou et al., Int. J. Cancer, 1995, 16, 854-859), and amplified under the following cycling conditions: pre-incubation 94° C. for 5 min then 94° C. for 40 sec, 58° C. for 60 sec and 72° C. for 40 sec for 30 cycles, post-incubation 72° C. for 3 min within a Mastercycleur Gradient (EPPENDORF). The use of these primers allows the migration of Bcl-Xs and Bcl-XL PCR products as two distinct bands of respectively 576 and 765 bp.
# Bcl-XL protein = experiment: Western blot of Bcl-XL protein expression in tumour cell lines after siRNA transfection
# Procedure: SKOV3, OAW42, OAW42-R10, IGROV1 and IGROV1-R10 human ovarian adenocarcinoma cell lines, GL15 glioblastoma cell line, and NCI-H28 mesothelioma cell line were obtained from ECACC or ATCC. OAW42, OAW42-R10 cells were grown in DMEM (GIBCO-BRL) supplemented with 10% foetal calf serum (GIBCO-BRL), 2 mM Glutamax™ (GIBCO-BRL), 1 mM sodium pyruvate (GIBCO-BRL), 20 UI/L human recombinant insulin (LILLY), 33 mM sodium bicarbonate and 20 mM HEPES All the other cell lines were grown in RPMI 1640 medium (GIBCO-BRL) supplemented with 10% foetal calf serum (GIBCO-BRL), 2 mM Glutamax™ (GIBCO-BRL), 33 mM sodium bicarbonate and 20 mM HEPES. Cells were maintained at 37° C. in a 5% CO2 humidified atmosphere, and split twice a week by trypsinization.
# (§2) Exponentially growing cells were exposed to CDDP for 2 hours at 37° C., in serum free medium. After exposure to the drug, the cell layers were rinsed and incubated in complete growth medium.
# as §1
# Cells were rinsed with ice cold PBS and lysed in 150 mM NaCl, 50 mM Tris-HCl pH 8, 1% Triton X100, 4 mM PMSF, 2 mM Aprotinin, 5 mM EDTA, 10 mM NaF, 10 mM NaPPi, 1 mM Na3VO4 for 30 min on ice. Lysates were clarified by centrifugation at 10000 g for 10 min at 4° C. and protein concentrations were determined using the Bradford assay (BIO-RAD). Equal amounts of total cellular protein (20 μg) were resolved in a Bis-tris-HCL buffered (pH 6.4) 4-12% polyacrylamide gel (NuPAGE® Novex® 4-12% Bis-tris gel, INVITROGEN) for 35 min at 200V and electrophoretically transferred on a PVDF membrane (MILLIPORE) for 75 min at 30V. The membrane was blocked for 1 hour at room temperature in T-TBS (132 mM NaCl, 20 mM Tris-HCl pH 7.6, 0.05% Tween 20) supplemented with 5% non-fat dry milk. The membrane was incubated for 1 hour at room temperature in T-TBS-milk with the following primary antibodies: anti-Bcl-XL/S (1:500, S18 SANTA-CRUZ BIOTECHNOLOGY), anti-PARP (1:1000, CELL-SIGNALING TECHNOLOGY), anti-caspase-3 (1:1000, BD BIOSCIENCES PHARMINGEN) anti-cleaved caspase-3 (1:1000, CELL-SIGNALING TECHNOLOGY), anti-alpha-tubulin (1:3000, SIGMA) and anti-Mcl-1 (1:750, S19 SANTA-CRUZ BIOTECHNOLOGY). After three washes with T-TBS, the membrane was incubated for 1 h at room temperature in T-TBS-milk with the adequate peroxidase conjugated secondary antibody (Anti-rabbit IgG, CELL-SIGNALING TECHNOLOGY, and anti-mouse IgG, AMERSHAM). After 3 washes with T-TBS and one with TBS, the immunoreactivity was detected by enhanced chemiluminescence (ECL kit, AMERSHAM).
# SKOV3 cells = experiment: Cell mortality, viability, growth and cell cycle of SKOV3 cells (morphology, trypan blue exclusion, FACS of DNA content)
# Procedure: as §2, §1
# After treatment, detached cells were collected separately and adherent cells were dissociated by trypsin/EDTA. Adherent and detached cells were then pooled and centrifuged at 1500×g for 5 min before being fixed in 70% ethanol. The cells were then collected on a polylysine-coated glass slide by cytocentrifugation, before a 30 min room temperature incubation in a 1 μg/ml DAPI aqueous solution (BOEHRINGER MANNHEIM). Slides were thereafter extensively washed in distilled water and mounted in Mowiol (CALBIO-CHEM).
# After treatment, detached cells were collected separately. Adherent cells were then harvested by trypsin/EDTA dissociation. Adherent and detached cells were then pooled and washed in PBS before being fixed in 70% ethanol and stored at −20° C. until analysis. Before flow cytometry analysis, the cells were washed in PBS and incubated for 30 min at room temperature in PBS in order to allow the release of low molecular weight (m.w.) DNA, characteristic of apoptotic cells. After a centrifugation at 4000 g for 10 min, the cell pellets were resuspended and stained with propidium iodide (PI) using the DNA Prep Coulter Reagent Kit (BECKMAN-COULTER) at a final concentration of 10^6 cells/ml.
# Samples were analyzed using an EPICS XL flow cytometer (BECKMAN COULTER) equipped with an argon laser at 15 mW. PI-stained cells were analyzed using a 488 mn excitation. A 620 nm band pass filter was put on the red fluorescence of PI. Computerized gating was applied on the side and forward scatter to exclude very small debris and on pulse width and integral peak of red fluorescence to eliminate aggregates. All samples were analyzed at a flow rate lower than 100 events per second and with a sheath pressure of 30 psi.
# [1] = SKOV3 cells, 100 nM siXL1, FIG. 4
substance,measurement,setting,value
"siXL1: double-stranded siRNA blocking Bcl-XL expression; sense 5′-auuggugagucggaucgcatt-3′ (SEQ ID NO: 5), anti-sense 5′-ugcgauccgacucaccaautt-3′ (SEQ ID NO: 6) (sense AUUGGUGAGUCGGAUCGCATT; antisense UGCGAUCCGACUCACCAAUTT; chemistry not given here)",Bcl-XL mRNA level (RT-PCR),Bcl-XL mRNA,greatly reduces
same,optimal concentration,Bcl-XL protein; SKOV3 cells,150 nM
same,persistence of the siXL1 effect,Bcl-XL protein; SKOV3 cells,96 h
same,effect on Bcl-XL protein expression at lower dose,"Bcl-XL protein; SKOV3 cells, 25 nM, FIG. 4",greatly reduced and delayed
same,time of maximum decrease of Bcl-XL protein expression,Bcl-XL protein; [1],72 h
same,time of reappearance of Bcl-XL protein expression,Bcl-XL protein; [1],≥ 144 h
same,Bcl-XL protein expression 24 hours after transfection,"Bcl-XL protein; SKOV3 cells, 24 hours after siXL1 transfection",reduced
same,effect of various concentrations on Bcl-XL protein expression,"Bcl-XL protein; SKOV3 cells, 72 h after transfection, FIG. 3",dose-dependent
same,Bcl-XL protein expression 24 hours after exposure to cisplatin,"Bcl-XL protein; SKOV3 cells, 72 hours after siRNA transfection, cisplatin 5 and 20 μg/ml, FIG. 9",disappears almost completely
same,Bcl-XL protein expression after 72 hours,"Bcl-XL protein; SKOV3 cells, 72 hours after transfection, FIG. 1C",disappeared totally
same,Bcl-XL protein expression 96 hours after cisplatin exposure,"Bcl-XL protein; SKOV3 cells, 144 hours after transfection, combination with 20 μg/ml cisplatin, FIG. 9",reappears
same,Bcl-XL protein expression in various tumor cell lines,"Bcl-XL protein; ovarian carcinoma, glioblastoma or mesothelioma cells, 72 h after transfection, FIGS. 2A&B",extinction
same,cytotoxic effect on SKOV3 cells,"SKOV3 cells; 50 nM each siRNA, absence of cisplatin, FIG. 12",no cytotoxic effect
same,cytotoxic effect of each siRNA,"SKOV3 cells; SKOV3 cells, FIGS. 13 and 14",slight cytoxic effect
same,cell viability (trypan blue exclusion),"SKOV3 cells; SKOV3 cells, alone 150 nM or in combination 75 nM each, FIGS. 13 and 14",reduction of cell viability
same,"cell death (morphology, FACS analysis of the cell cycle)","SKOV3 cells; SKOV3 cells, cisplatin 5 or 20 μg/ml, siRNA 150 nM",moderate cell death by apoptosis

# — US8193333B2, “Cancer therapy using Bcl-Xl-specific siNA” (Centre Regional de Lutte Contre le Cancer-Centre Francois …, priority 2006, dated 2012)
